Molecular target: T1, ER (Homo sapiens, UniProt P03372)
T1 construct: host or cells: T47D and MCF7 human breast cancer cells
T1 sequence (P03372 1-595): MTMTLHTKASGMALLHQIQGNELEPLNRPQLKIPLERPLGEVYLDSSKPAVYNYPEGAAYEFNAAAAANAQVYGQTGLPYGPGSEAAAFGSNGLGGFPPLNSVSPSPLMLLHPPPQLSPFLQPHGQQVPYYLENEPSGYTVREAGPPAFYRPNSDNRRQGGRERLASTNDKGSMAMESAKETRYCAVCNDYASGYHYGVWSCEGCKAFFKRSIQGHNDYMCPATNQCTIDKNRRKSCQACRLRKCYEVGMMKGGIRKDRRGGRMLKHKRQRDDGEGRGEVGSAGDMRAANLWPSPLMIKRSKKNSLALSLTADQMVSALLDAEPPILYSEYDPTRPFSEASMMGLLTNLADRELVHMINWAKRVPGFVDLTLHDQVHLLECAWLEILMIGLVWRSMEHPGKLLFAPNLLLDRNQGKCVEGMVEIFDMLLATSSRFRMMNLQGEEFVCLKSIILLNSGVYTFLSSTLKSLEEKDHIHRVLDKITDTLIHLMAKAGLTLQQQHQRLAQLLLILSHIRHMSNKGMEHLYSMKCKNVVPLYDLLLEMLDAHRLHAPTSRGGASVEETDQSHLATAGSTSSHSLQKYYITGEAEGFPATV
Experiment: ER degradation activity, in-cell western blot analysis in T47D cells
Format: cell-based
Settings: compounds 16 hours, Table A does not say whether T47D or MCF7, read-out: Potency (DC50)
Method in brief: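 Cells were seeded overnight, exposed to diluted compounds for 16 hours, then stained with primary antibodies and with infrared-labelled secondary antibodies (1:1000, 1 h RT). Plates were scanned on a CLX reader, and ER levels were normalised to DMSO-treated wells.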

| Compound | DC50 |
| --- | --- |
| C[C@@H]1Cc2c([nH]c3ccccc23)[C@@H](c2cnc(N3CCC4(CC3)CC(CN3Cc5cc6c(cc5C3)C(=O)N([C@H]3CCC(=O)NC3=O)C6=O)C4)nc2)N1CC(F)(F)CO [E 512, 6-((7-(5-((1R,3R)-2-(2,2-difluoro-3-hydroxypropyl)-3-methyl-2,3,4,9-tetrahydro-1H-pyrido[3,4-b]indol-1-yl)pyrimidin-2-yl)-7-azaspiro[3.5]nonan-2-yl)methyl)-2-((S)-2,6-dioxopiperidin-3-yl)-6,7-dihydropyrrolo[3,4-f]isoindole-1,3(2H,5H)-dione] | > 0.1 µM |
| C[C@@H]1Cc2c([nH]c3ccccc23)[C@@H](c2cnc(N3CC4(CCC(CN5Cc6cc7c(cc6C5)C(=O)N(C5CCC(=O)NC5=O)C7=O)CC4)C3)nc2)N1CC(F)(F)CO (stereo partly drawn) [E 513, 6-((2-(5-((1R,3R)-2-(2,2-difluoro-3-hydroxypropyl)-3-methyl-2,3,4,9-tetrahydro-1H-pyrido[3,4-b]indol-1-yl)pyrimidin-2-yl)-2-azaspiro[3.5]nonan-7-yl)methyl)-2-(2,6-dioxopiperidin-3-yl)-6,7-dihydropyrrolo[3,4-f]isoindole-1,3(2H,5H)-dione] | 0.01 to 0.1 µM |
| COc1cc(N2CCC3(CCN(C(=O)CN4Cc5cc6c(cc5C4)C(=O)N(C4CCC(=O)NC4=O)C6=O)CC3)CC2)ccc1[C@@H]1c2[nH]c3ccccc3c2C[C@@H](C)N1CC(C)(C)F (stereo partly drawn) [E 514, 2-(2,6-dioxopiperidin-3-yl)-6-(2-(9-(4-((1R,3R)-2-(2-fluoro-2-methylpropyl)-3-methyl-2,3,4,9-tetrahydro-1H-pyrido[3,4-b]indol-1-yl)-3-methoxyphenyl)-3,9-diazaspiro[5.5]undecan-3-yl)-2-oxoethyl)-6,7-dihydropyrrolo[3,4-f]isoindole-1,3(2H,5H)-dione] | 0.01 to 0.1 µM |
| O=C1CCC(N2C(=O)c3cc4c(cc3C2=O)CN(CC2COC3(CCN(c5ccc([C@@H]6c7ccc(O)cc7CC[C@@H]6c6ccccc6)cc5)CC3)C2)C4)C(=O)N1 (stereo partly drawn) [E 515, 2-(2,6-dioxopiperidin-3-yl)-6-((8-(4-((1R,2S)-6-hydroxy-2-phenyl-1,2,3,4-tetrahydronaphthalen-1-yl)phenyl)-1-oxa-8-azaspiro[4.5]decan-3-yl)methyl)-6,7-dihydropyrrolo[3,4-f]isoindole-1,3(2H,5H)-dione] | 0.01 to 0.1 µM |

Now from value to compound:

| DC50 | Compound |
| --- | --- |
| > 0.1 µM | O=C1CCC(N2Cc3cc4c(cc3C2=O)C(=O)N(CC2CN(CC3CCN(c5ccc([C@@H]6c7ccc(O)cc7CC[C@@H]6c6ccccc6)cc5)CC3)C2)C4)C(=O)N1 (stereo partly drawn) [E 508, 2-(2,6-dioxopiperidin-3-yl)-6-((1-((1-(4-((1R,2S)-6-hydroxy-2-phenyl-1,2,3,4-tetrahydronaphthalen-1-yl)phenyl)piperidin-4-yl)methyl)azetidin-3-yl)methyl)-2,3,5,6-tetrahydropyrrolo[3,4-f]isoindole-1,7-dione] |
| > 0.1 µM | Cn1cc(-c2ccc3c(c2)CC[C@H](c2ccccc2)[C@@H]3c2ccc(N3CCC4(CCN(C(=O)CN5Cc6cc7c(cc6C5)C(=O)N(C5CCC(=O)NC5=O)C7=O)CC4)CC3)cc2)cn1 (stereo partly drawn) [E 509, 2-(2,6-dioxopiperidin-3-yl)-6-(2-(9-(4-((1R,2S)-6-(1-methyl-1H-pyrazol-4-yl)-2-phenyl-1,2,3,4-tetrahydronaphthalen-1-yl)phenyl)-3,9-diazaspiro[5.5]undecan-3-yl)-2-oxoethyl)-6,7-dihydropyrrolo[3,4-f]isoindole-1,3(2H,5H)-dione] |
| > 0.1 µM | O=C1CCC(N2C(=O)c3cc4c(cc3C2=O)CN(CC(=O)N2CCC3(CC2)CCN(c2ccc([C@@H]5c6ccc(-c7cn[nH]c7)cc6CC[C@@H]5c5ccccc5)cc2)CC3)C4)C(=O)N1 (stereo partly drawn) [E 510, 2-(2,6-dioxopiperidin-3-yl)-6-(2-oxo-2-(9-(4-((1R,2S)-2-phenyl-6-(1H-pyrazol-4-yl)-1,2,3,4-tetrahydronaphthalen-1-yl)phenyl)-3,9-diazaspiro[5.5]undecan-3-yl)ethyl)-6,7-dihydropyrrolo[3,4-f]isoindole-1,3(2H,5H)-dione] |
